This passage reports % of inhibition and % of control results from ChEMBL document CHEMBL5465560, “Selectivity Literature for EUbOPEN Chemogenomic Library” (2024).

Test [1] addresses Vascular endothelial growth factor receptor 1 (Homo sapiens) (UniProt P17948). Kind of test: Selectivity interaction (Kinase panel (Eurofins)) EUB0001564a FLT1. Particulars: at 1 µM.
Test [2] concerns the target Serine/threonine-protein kinase MRCK gamma (Homo sapiens) (UniProt Q6DT37). Particulars: at 10 µM.
Test [3] concerns the target Death-associated protein kinase 1 (Homo sapiens, UniProt P53355). Kind of test: Selectivity interaction (KinomeScan (DiscoverX)) EUB0001619a DAPK1. Particulars: at 1 µM.
Test [4] addresses Tyrosine-protein kinase Lck (Homo sapiens, UniProt P06239). Kind of test: Selectivity interaction (KinomeScan (DiscoverX)) EUB0000695a LCK. To be noted: at 100 nM.
Test [5] concerns the target Phosphatidylinositol 4,5-bisphosphate 3-kinase catalytic subunit alpha isoform (Homo sapiens) (UniProt P42336). Kind of test: (§1) Selectivity interaction (KinomeScan (DiscoverX)) EUB0000666a PIK3CA. Particulars: at 10 µM.
In test [6] the test system is Phosphatidylinositol 4,5-bisphosphate 3-kinase catalytic subunit alpha isoform (Homo sapiens), P42336 [C420R]. Described as §1. To be noted: at 10 µM.
Test [7] deals with Phosphatidylinositol 4,5-bisphosphate 3-kinase catalytic subunit alpha isoform (Homo sapiens), P42336 [E542K]. Described as §1. Particulars: at 10 µM.
The subject of test [8] is Phosphatidylinositol 4,5-bisphosphate 3-kinase catalytic subunit alpha isoform (Homo sapiens), P42336 [E545A]. The description is as §1. Particulars: at 10 µM.
Test [9] relates to Phosphatidylinositol 4,5-bisphosphate 3-kinase catalytic subunit alpha isoform (Homo sapiens), P42336 [E545K]. The description is as §1. To be noted: at 10 µM.
In test [10] the test system is Phosphatidylinositol 4,5-bisphosphate 3-kinase catalytic subunit alpha isoform (Homo sapiens), P42336 [H1047L]. The description is as §1. To be noted: at 10 µM.
Test [11] has as its system Phosphatidylinositol 4,5-bisphosphate 3-kinase catalytic subunit alpha isoform (Homo sapiens), P42336 [H1047Y]. Described as §1. To be noted: at 10 µM.
The test system of test [12] is Phosphatidylinositol 4,5-bisphosphate 3-kinase catalytic subunit alpha isoform (Homo sapiens), P42336 [I800L]. Described as §1. To be noted: at 10 µM.
Test [13] deals with Phosphatidylinositol 4,5-bisphosphate 3-kinase catalytic subunit alpha isoform (Homo sapiens), P42336 [M1043I]. The description is as §1. To be noted: at 10 µM.
The subject of test [14] is Phosphatidylinositol 4,5-bisphosphate 3-kinase catalytic subunit alpha isoform (Homo sapiens), P42336 [Q546K]. The description is as §1. To be noted: at 10 µM.
In test [15] the target is Tyrosine-protein kinase Fes/Fps (Homo sapiens) (UniProt P07332). In words: Selectivity interaction (SelectScreen profiling (Invitrogen)) EUB0000607a FES. Particulars: at 2 µM.
Test [16] deals with Interleukin-1 receptor-associated kinase 1 (Homo sapiens) (UniProt P51617). To be noted: at 10 µM.
The target of test [17] is Rho-associated protein kinase 1 (Homo sapiens) (UniProt Q13464). To be noted: at 10 µM.
For test [18], the target named is Serine/threonine-protein kinase N1 (Homo sapiens, UniProt Q16512). In words: Selectivity interaction (ActivX KiNativ screen (kinase selectivity in THP-1 cell lysates)) EUB0000639a PKN1. It is filed as subcellular. Particulars: lysate, at 0.01 µM.
For another test, the target named is Focal adhesion kinase 1 (Homo sapiens, UniProt Q05397). In words: Selectivity interaction (KinomeScan (DiscoverX)) EUB0001049a PTK2. To be noted: at 1 µM.
Test [19] deals with Serine/threonine-protein kinase PAK 2 (Homo sapiens) (UniProt Q13177). Kind of test: Selectivity interaction (KinomeScan (DiscoverX)) EUB0000618a PAK2. To be noted: at 10 µM.
Test [20] deals with Casein kinase II subunit alpha' (Homo sapiens) (UniProt P19784). Kind of test: Selectivity interaction (KinomeScan (DiscoverX)) EUB0000092b CSNK2A2. Particulars: at 10 µM.
The target of test [21] is T1, Mitogen-activated protein kinase kinase kinase kinase 3 (Homo sapiens) (UniProt Q8IVH8).
T1 sequence (whole entry): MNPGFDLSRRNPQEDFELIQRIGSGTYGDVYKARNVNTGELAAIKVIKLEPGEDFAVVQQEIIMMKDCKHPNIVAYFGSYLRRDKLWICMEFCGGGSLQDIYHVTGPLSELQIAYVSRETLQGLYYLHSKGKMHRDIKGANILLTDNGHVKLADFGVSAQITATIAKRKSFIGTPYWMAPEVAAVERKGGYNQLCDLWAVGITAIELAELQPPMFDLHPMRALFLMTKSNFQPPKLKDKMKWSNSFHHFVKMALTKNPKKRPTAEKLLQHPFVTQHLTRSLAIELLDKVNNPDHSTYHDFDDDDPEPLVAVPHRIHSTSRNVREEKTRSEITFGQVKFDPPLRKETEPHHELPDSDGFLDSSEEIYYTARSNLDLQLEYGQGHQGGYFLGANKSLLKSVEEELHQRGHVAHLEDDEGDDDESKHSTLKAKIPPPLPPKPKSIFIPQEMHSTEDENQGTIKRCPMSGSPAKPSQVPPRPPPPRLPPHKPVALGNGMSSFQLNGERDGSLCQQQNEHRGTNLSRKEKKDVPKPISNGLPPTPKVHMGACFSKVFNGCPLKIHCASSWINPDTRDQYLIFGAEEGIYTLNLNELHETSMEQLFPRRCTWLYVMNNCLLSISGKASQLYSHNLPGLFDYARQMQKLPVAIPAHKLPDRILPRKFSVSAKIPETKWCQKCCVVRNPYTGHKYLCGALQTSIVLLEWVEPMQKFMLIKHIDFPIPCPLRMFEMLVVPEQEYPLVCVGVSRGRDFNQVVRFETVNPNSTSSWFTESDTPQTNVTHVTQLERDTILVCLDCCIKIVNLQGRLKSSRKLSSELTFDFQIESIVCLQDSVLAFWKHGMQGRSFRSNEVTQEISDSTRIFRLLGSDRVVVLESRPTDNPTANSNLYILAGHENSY
Kind of test: Selectivity interaction (KinomeScan (DiscoverX)) EUB0000092b MAP4K3. Particulars: at 10 µM.

Sequence of Phosphatidylinositol 4,5-bisphosphate 3-kinase catalytic subunit alpha isoform (Homo sapiens), P42336 [C420R] (P42336 whole entry C420R, canonical isoform): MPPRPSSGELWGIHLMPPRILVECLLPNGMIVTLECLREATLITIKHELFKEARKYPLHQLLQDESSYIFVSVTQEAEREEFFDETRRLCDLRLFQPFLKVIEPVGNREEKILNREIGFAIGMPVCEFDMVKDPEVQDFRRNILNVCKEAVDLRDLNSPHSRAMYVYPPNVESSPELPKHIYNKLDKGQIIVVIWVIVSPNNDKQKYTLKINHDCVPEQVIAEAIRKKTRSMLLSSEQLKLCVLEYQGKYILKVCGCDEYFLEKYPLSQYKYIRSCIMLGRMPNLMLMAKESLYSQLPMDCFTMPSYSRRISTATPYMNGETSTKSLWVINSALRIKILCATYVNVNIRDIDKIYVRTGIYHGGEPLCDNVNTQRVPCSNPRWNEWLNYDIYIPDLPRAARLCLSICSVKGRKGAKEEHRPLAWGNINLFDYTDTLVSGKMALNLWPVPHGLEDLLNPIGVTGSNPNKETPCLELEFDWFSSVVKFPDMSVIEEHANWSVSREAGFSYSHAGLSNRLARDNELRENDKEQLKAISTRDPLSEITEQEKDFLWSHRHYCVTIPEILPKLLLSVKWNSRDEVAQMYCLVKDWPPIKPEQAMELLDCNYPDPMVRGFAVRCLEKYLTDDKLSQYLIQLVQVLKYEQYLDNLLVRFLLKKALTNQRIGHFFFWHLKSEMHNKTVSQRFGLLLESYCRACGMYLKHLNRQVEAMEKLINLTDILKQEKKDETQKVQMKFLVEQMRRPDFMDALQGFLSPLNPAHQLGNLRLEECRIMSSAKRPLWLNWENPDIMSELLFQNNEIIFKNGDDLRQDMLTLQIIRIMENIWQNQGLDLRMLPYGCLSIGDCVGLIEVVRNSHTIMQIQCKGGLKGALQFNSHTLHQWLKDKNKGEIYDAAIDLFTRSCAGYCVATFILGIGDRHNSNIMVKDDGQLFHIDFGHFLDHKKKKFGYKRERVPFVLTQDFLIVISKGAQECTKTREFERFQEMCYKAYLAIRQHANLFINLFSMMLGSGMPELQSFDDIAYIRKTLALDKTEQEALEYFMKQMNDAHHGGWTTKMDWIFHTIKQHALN
Sequence of Focal adhesion kinase 1 (Q05397 2-1052 limits assumed): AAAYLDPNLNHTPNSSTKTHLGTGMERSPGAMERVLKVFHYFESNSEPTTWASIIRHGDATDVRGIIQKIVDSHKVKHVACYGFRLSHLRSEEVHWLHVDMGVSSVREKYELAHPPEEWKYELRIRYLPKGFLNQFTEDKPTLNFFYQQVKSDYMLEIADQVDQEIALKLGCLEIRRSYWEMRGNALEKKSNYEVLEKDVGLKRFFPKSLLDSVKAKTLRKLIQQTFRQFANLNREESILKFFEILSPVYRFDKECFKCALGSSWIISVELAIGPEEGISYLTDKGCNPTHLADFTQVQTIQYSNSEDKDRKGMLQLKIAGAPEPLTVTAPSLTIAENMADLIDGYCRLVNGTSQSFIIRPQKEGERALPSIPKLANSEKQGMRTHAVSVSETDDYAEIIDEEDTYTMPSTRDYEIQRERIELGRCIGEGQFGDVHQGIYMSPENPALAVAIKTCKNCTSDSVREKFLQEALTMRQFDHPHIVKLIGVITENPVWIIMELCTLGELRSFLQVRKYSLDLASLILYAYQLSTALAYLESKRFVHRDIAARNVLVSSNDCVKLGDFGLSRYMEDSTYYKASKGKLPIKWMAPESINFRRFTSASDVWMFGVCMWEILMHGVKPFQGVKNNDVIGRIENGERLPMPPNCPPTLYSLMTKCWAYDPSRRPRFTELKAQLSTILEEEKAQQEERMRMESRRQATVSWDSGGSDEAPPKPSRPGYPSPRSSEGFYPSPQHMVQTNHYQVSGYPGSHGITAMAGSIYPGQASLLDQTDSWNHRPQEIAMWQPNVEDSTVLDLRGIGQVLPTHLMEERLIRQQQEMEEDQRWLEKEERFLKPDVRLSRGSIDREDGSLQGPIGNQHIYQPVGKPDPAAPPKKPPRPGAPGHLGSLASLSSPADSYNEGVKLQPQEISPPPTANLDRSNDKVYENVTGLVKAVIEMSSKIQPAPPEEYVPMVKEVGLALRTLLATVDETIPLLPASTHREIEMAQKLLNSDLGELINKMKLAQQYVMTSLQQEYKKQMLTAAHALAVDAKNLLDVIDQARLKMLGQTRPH
Sequence of Phosphatidylinositol 4,5-bisphosphate 3-kinase catalytic subunit alpha isoform (Homo sapiens), P42336 [E542K] (P42336 whole entry E542K, canonical isoform): as the sequence (P42336 whole entry C420R, canonical isoform) above, with R420C, E542K counted along it
Sequence of Serine/threonine-protein kinase PAK 2 (Homo sapiens) (Q13177 whole entry): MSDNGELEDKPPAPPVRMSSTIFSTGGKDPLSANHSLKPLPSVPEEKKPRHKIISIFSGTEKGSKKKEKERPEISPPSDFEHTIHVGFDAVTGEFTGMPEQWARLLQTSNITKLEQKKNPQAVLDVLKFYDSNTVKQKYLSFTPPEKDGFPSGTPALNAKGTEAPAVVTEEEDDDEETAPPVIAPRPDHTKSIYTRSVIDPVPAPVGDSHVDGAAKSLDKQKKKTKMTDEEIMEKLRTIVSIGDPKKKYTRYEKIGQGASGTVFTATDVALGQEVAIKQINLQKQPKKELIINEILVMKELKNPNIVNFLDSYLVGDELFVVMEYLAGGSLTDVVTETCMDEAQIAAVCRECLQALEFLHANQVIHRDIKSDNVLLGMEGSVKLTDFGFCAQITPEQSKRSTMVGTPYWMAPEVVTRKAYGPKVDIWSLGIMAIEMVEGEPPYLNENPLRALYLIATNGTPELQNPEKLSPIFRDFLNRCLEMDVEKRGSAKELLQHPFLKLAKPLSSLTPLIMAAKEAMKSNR
Sequence of Phosphatidylinositol 4,5-bisphosphate 3-kinase catalytic subunit alpha isoform (Homo sapiens), P42336 [H1047Y] (P42336 whole entry H1047Y, canonical isoform): as the sequence (P42336 whole entry C420R, canonical isoform) above, with R420C, H1047Y counted along it

As for `CC[C@@H](Nc1c(C#N)c(-c2ccc(-c3cccc(C)c3F)cc2)nc2cnccc12)C(=O)O` [BAY-091], in [1], the % of inhibition was 56.8%.

In test [2], `COCC(=O)NC/C=C/c1ccc2ncnc(Nc3ccc(Oc4ccc(C)nc4)c(C)c3)c2c1` [CP-724714] registered a % of control of 90%.

Turning to `N#Cc1cccc(-c2c[nH]c3ncnc(N4CCOCC4)c23)c1`, the % of control in [3] was determined as 89%.

Regarding `Cc1cc(F)c(C(=O)Nc2cccc(-c3nncn3C(C)C)n2)cc1-n1cnc(C2CC2)c1`, in test [4], the % of control was 86%.

Take `O=C(NOC[C@H](O)CO)c1ccc(F)c(F)c1Nc1ccc(I)cc1F`: the % of control in test [5] was 56%; in test [6], 50%; in [7], 57%; in test [8], 45%; in test [9], 53%; in [10], 45%. Further, the % of control in test [11] was found to be 57%; in [12] it was 33%; in test [13], 42%; in test [14], 41%.

With `CNC(=O)Nc1ccc(-c2nc(N3CC4CCC(C3)O4)c3cnn(C4CCC5(CC4)OCCO5)c3n2)cc1`, the % of inhibition in [15] was -1%.

`Cc1cc([C@@H](C)Nc2ccccc2C(=O)O)c2nc(N3CCOCC3)cc(=O)n2c1` [AZD-6482]: the results for the % of control in [16] and in test [17] were 90% and 73%, respectively.

Take `CC[C@@H]1[C@H](F)C(=O)N[C@@H]1COc1nccc2cc(C(N)=O)c(OC)cc12` [ZIMLOVISERTIB]: the % of inhibition in [18] is -9.7%.

`COc1cc(Nc2nc(C)cc(-c3cnn4nc(OC)ccc34)n2)cc(C(F)(F)F)c1` returned a % of control on Focal adhesion kinase 1 of 86%.

On to `O[C@H]1CC[C@H](Nc2ncc3nc(Nc4c(F)cc(F)cc4F)n([C@H]4CCOC4)c3n2)CC1`, for which the % of control in test [19] worked out at 100%.

`CCC(=O)N1CCN(c2ccc(-n3c(=O)ccc4cnc5ccc(-c6cnc7ccccc7c6)cc5c43)cc2C(F)(F)F)CC1`: the % of control in [20] turned out to be 11%; in test [21] it was 1.9%.
